Assay results from patent US20260258032A1, “TYROSINE KINASE 2 INHIBITORS AND USES THEREOF” (BIOGEN MA INC., priority 2022, published 2026).
Structures can show the parent of a compound that is named as a salt.

Key:
JH2 domain of human Tyk2 = molecular target: T1, JH2 domain of human Tyk2 (Homo sapiens, UniProt P29597); assay: JH2 biochemical assay (TR-FRET probe displacement); type: binding
T1 construct: 10×His-tagged TYK2 JH2 domain (amino acid 575-876)
Procedure, shortened: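 10×His-tagged human TYK2 JH2 (aa 575-876, 2 nM) incubated 60 min with 2 nM fluorescent probe, 0.1 nM Tb anti-His antibody and compound (10-point 3-fold series from […] top). TR-FRET 520/495 nm ratio, falling with probe displacement, normalized and fitted to a 4-parameter logistic for IC50.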

[1] = system: Tyk2 kinase activity on STAT4; assay: pSTAT4 cell assay (MSD, NK92 cells); type: cell-based; conditions: compounds 1 hr
Procedure, shortened: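 NK92, serum-starved; cpd 1 hr, 10-pt 4-fold from 10 μM; IL2 30 ng/mL 15 min; lyse; MSD with anti-STAT4 Abs; IC50 by 4-PL fit.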

[2] = TR-FRET probe displacement, JH2 domain of human Tyk2

T1 sequence (P29597 575-876): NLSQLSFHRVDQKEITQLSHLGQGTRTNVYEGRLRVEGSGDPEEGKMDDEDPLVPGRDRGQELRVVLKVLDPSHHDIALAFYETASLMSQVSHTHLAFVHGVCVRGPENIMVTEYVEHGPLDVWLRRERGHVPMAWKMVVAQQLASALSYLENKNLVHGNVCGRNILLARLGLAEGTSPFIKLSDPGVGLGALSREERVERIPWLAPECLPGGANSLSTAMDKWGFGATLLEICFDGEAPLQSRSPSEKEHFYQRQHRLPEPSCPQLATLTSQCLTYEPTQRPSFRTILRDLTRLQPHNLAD

SMILES | IC50 (JH2 domain of human Tyk2; JH2 biochemical assay) [nM] | IC50 ([1]; stimulated 15 minutes) [nM] | IC50 (JH2 domain of human Tyk2; [2]) [nM] | IC50 ([1]; then stimulated 15 minutes) [nM]
CC(=O)Nc1cc2c(cn1)C1(CC1)CN2c1cc(C)nc(C2(C)CC2)n1 [Example 69, N-(1′-(6-methyl-2-(1-methylcyclopropyl)pyrimidin-4-yl)-1′,2′-dihydrospiro[cyclopropane-1,3′-pyrrolo[3,2-c]pyridin]-6′-yl)acetamide] | ≤ 10 | 100 to 1000 | – | –
COc1ccc(-c2nc(C)cc(N3CC4(CC4)c4cnc(NC(C)=O)cc43)n2)cn1 [Example 254, N-(1′-(2-(6-methoxypyridin-3-yl)-6-methylpyrimidin-4-yl)-1′,2′-dihydrospiro[cyclopropane-1,3′-pyrrolo[3,2-c]pyridin]-6′-yl)acetamide trifluoroacetate] | 100 to 1000 | ≥ 1000 | – | –
CC(=O)Nc1cc2c(cn1)C1(CC1)CN2c1cc(NC2CSC2)nc(C(C)(F)F)n1 [Example 166, N-(1′-(2-(1,1-difluoroethyl)-6-(thietan-3-ylamino)pyrimidin-4-yl)-1′,2′-dihydrospiro[cyclopropane-1,3′-pyrrolo[3,2-c]pyridin]-6′-yl)acetamide trifluoroacetate] | ≤ 10 | 10 to 100 | – | –
CC(=O)Nc1cc2c(cn1)C1(CC1)CN2c1cc(N2CCC2)nc(C(C)(F)F)n1 [Example 51, N-(1′-(6-(azetidin-1-yl)-2-(1,1-difluoroethyl)pyrimidin-4-yl)-1′,2′-dihydrospiro[cyclopropane-1,3′-pyrrolo[3,2-c]pyridin]-6′-yl)acetamide] | ≤ 10 | 100 to 1000 | – | –
CC(=O)Nc1cc2c(cn1)C1(CC1)CN2c1cc(C)cc(N2CC(O)C2)n1 [Example 193, N-(1′-(6-(3-hydroxyazetidin-1-yl)-4-methylpyridin-2-yl)-1′,2′-dihydrospiro[cyclopropane-1,3′-pyrrolo[3,2-c]pyridin]-6′-yl)acetamide] | 10 to 100 | ≥ 1000 | – | –
CC(=O)Nc1cc2c(cn1)C1(CC1)CN2c1cc(-c2ccncc2F)nc(C(C)(F)F)n1 [Example 381, N-(1′-(2-(1,1-difluoroethyl)-6-(3-fluoropyridin-4-yl)pyrimidin-4-yl)-1′,2′-dihydrospiro[cyclopropane-1,3′-pyrrolo[3,2-c]pyridin]-6′-yl)acetamide trifluoroacetate] | – | – | ≤ 10 | ≤ 10
CC(=O)Nc1cc2c(cn1)C1(CC1)CN2c1cc(C)nc(OC2CC(C)C2)n1 (stereo not shown) [Example 367, N-(1′-(6-methyl-2-(3-methylcyclobutoxy)pyrimidin-4-yl)-1′,2′-dihydrospiro[cyclopropane-1,3′-pyrrolo[3,2-c]pyridin]-6′-yl)acetamide] | 100 to 1000 | ≥ 1000 | – | –
CC(=O)Nc1cc2c(cn1)C1(CC1)CN2c1cc(C)nc(-c2cnn(C)c2)n1 [Example 245, N-(1′-(6-methyl-2-(1-methyl-1H-pyrazol-4-yl)pyrimidin-4-yl)-1′,2′-dihydrospiro[cyclopropane-1,3′-pyrrolo[3,2-c]pyridin]-6′-yl)acetamide trifluoroacetate] | 10 to 100 | 100 to 1000 | – | –
CC(=O)Nc1cc2c(cn1)C1(CC1)CN2c1nc(C(C)(F)F)cs1 [Example 79, N-(1′-(4-(1,1-difluoroethyl)thiazol-2-yl)-1′,2′-dihydrospiro[cyclopropane-1,3′-pyrrolo[3,2-c]pyridin]-6′-yl)acetamide trifluoroacetate] | 10 to 100 | ≥ 1000 | – | –
CCCCCc1cc(N2CC3(CC3)c3cnc(NC(C)=O)cc32)nc(C(C)(F)F)n1 [Example 328, N-(1′-(2-(1,1-difluoroethyl)-6-pentylpyrimidin-4-yl)-1′,2′-dihydrospiro[cyclopropane-1,3′-pyrrolo[3,2-c]pyridin]-6′-yl)acetamide] | ≤ 10 | 10 to 100 | – | –
CC(=O)Nc1cc2c(cn1)C1(CC1)CN2c1cc(C)cc(N2CC(C(F)F)C2)n1 [Example 201, N-(1′-(6-(3-(difluoromethyl)azetidin-1-yl)-4-methylpyridin-2-yl)-1′,2′-dihydrospiro[cyclopropane-1,3′-pyrrolo[3,2-c]pyridin]-6′-yl)acetamide trifluoroacetate] | 10 to 100 | ≥ 1000 | – | –
CC(=O)Nc1cc2c(cn1)C1(CC1)CN2c1cc(OC(C)C#N)nc(C(C)(F)F)n1 (stereo not shown) [Example 151, N-(1′-(6-(1-cyanoethoxy)-2-(1,1-difluoroethyl)pyrimidin-4-yl)-1′,2′-dihydrospiro[cyclopropane-1,3′-pyrrolo[3,2-c]pyridin]-6′-yl)acetamide trifluoroacetate] | 10 to 100 | ≥ 1000 | – | –
CC(=O)Nc1cc2c(cn1)C1(CC1)CN2c1cc(C)nc(N2CCC(F)(F)C2)n1 [Example 229, N-(1′-(2-(3,3-difluoropyrrolidin-1-yl)-6-methylpyrimidin-4-yl)-1′,2′-dihydrospiro[cyclopropane-1,3′-pyrrolo[3,2-c]pyridin]-6′-yl)acetamide] | ≤ 10 | 100 to 1000 | – | –
COCCCc1cc(N2CC3(CC3)c3cnc(NC(C)=O)cc32)nc(C(C)(F)F)n1 [Example 326, N-(1′-(2-(1,1-difluoroethyl)-6-(3-methoxypropyl)pyrimidin-4-yl)-1′,2′-dihydrospiro[cyclopropane-1,3′-pyrrolo[3,2-c]pyridin]-6′-yl)acetamide] | ≤ 10 | 10 to 100 | – | –
CC(=O)Nc1cc2c(cn1)C1(CC1)CN2c1cc(C)nc(N2CC(S(C)(=O)=O)C2)n1 [Example 224, N-(1′-(6-methyl-2-(3-(methylsulfonyl)azetidin-1-yl)pyrimidin-4-yl)-1′,2′-dihydrospiro[cyclopropane-1,3′-pyrrolo[3,2-c]pyridin]-6′-yl)acetamide] | 100 to 1000 | ≥ 1000 | – | –
CCOc1cc(C)cc(N2CC3(CC3)c3cnc(NC(C)=O)cc32)n1 [Example 335, N-(1′-(6-ethoxy-4-methylpyridin-2-yl)-1′,2′-dihydrospiro[cyclopropane-1,3′-pyrrolo[3,2-c]pyridin]-6′-yl)acetamide trifluoroacetate] | 10 to 100 | ≥ 1000 | – | –
CNCc1cc(N2CC3(CC3)c3cnc(NC(C)=O)cc32)nc(C(C)(F)F)n1 [Example 298, N-(1′-(2-(1,1-difluoroethyl)-6-((methylamino)methyl)pyrimidin-4-yl)-1′,2′-dihydrospiro[cyclopropane-1,3′-pyrrolo[3,2-c]pyridin]-6′-yl)acetamide] | 10 to 100 | ≥ 1000 | – | –
CCOC(=O)c1cc(N2CC3(CC3)c3cnc(NC(C)=O)cc32)nc(C(C)(F)F)n1 [Example 291, Ethyl 6-(6′-acetamidospiro[cyclopropane-1,3′-pyrrolo[3,2-c]pyridin]-1′(2′H)-yl)-2-(1,1-difluoroethyl)pyrimidine-4-carboxylate] | ≤ 10 | 100 to 1000 | – | –
COC1CC(COc2nc(C)cc(N3CC4(CC4)c4cnc(NC(C)=O)cc43)n2)C1 (stereo not shown) [Example 372, N-(1′-(2-((3-methoxycyclobutyl)methoxy)-6-methylpyrimidin-4-yl)-1′,2′-dihydrospiro[cyclopropane-1,3′-pyrrolo[3,2-c]pyridin]-6′-yl)acetamide] | – | – | 100 to 1000 | ≥ 1000
CC(=O)Nc1cc2c(cn1)C1(CC1)CN2c1nc(C2CCOC2)c(C)s1 (stereo not shown) [Example 82, N-(1′-(5-methyl-4-(tetrahydrofuran-3-yl)thiazol-2-yl)-1′,2′-dihydrospiro[cyclopropane-1,3′-pyrrolo[3,2-c]pyridin]-6′-yl)acetamide trifluoroacetate] | ≤ 10 | 100 to 1000 | – | –
